The test system of assay [1] is phospho ERK1/2 (T202/Y204) in HUVEC cells. Description: VEGF-dependent Erk phosphorylation. The class given is cell-based. The note with it: VEGF165 150 ng/ml, Western blot, read-out: P_ERK IC50UM. An excerpt: VEGF-Dependent Erk Phosphorylation
HUVEC cells are purchased from Cambrex Bio Science Walkersville, Inc and cultured according to the vendor's instructions. The full-length coding sequence of VEGF165 is cloned using the Gateway Cloning Technology (Invitrogen) for baculovirus expression Sf9 cells. VEGF165 is purified from conditioned media using a NaCl gradient elution from a HiTrap heparin column (GE Healthcare Life Sciences) followed by an imidazole gradient elution from a HiTrap chelating column (GE Healthcare Life Sciences), then buffer stored in PBS supplemented with 0.1% BSA and filter sterilized
Cells are seeded at 8000 cells/well of a 96 wells plate and grown for 48 hours. Cells are then grown overnight in serum and growth factor-free medium and exposed for 1.5 h to compounds dilutions. Following a 15 min incubation in medium, VEGF165 (150 ng/ml) cells are lysed in ice-cold lysis buffer (50 mM HEPES, pH 7.4, 150 mM NaCl, 1.5 mM MgCl2, 1% Triton X-100, 10% glycerol) containing 1 mM 4-(2 aminoethyl)benzenesulfonyl fluoride hydrochloride, 200 μM sodium orthovanadate, 1 mM sodium fluoride, 10 μg/mL leupeptin, 10 μg/mL aprotinin, 1 μg/mL pepstatin and 50 μg/mL Na-p-tosyl-L-lysine chloromethyl ketone hydrochloride and processed as Western blots to detect anti-phospho ERK1/2 (T202/Y204) (Cell Signaling Technologies).
lysates samples from single treatment wells are separated on 5-20% SDS-PAGE gels and immunobloting is performed using Immobilon polyvinylidene difluoride membranes (Amersham) according to the manufacturer's instructions. The blots are washed in Tris-buffered saline with 0.1% Tween 20 detergent (TBST) and probed for antibodies against phospho-Thr202/Tyr204-ERK (Cell signaling technologies. Chemiluminescence detection (Amersham, ECL plus) is performed according to the manufacturer's instructions using a Storm densitometer (GE Healthcare; 800 PMT, […]) for imaging and densitometry analysis. Values of over the range of dilution are used to prepare IC50 curves using a 4-parameter fit model. These curves are calculated using GraFit
For orientation: In western blotting, separated proteins are transferred to a membrane and probed.

Another assay deals with T1, VEGFR2 (KDR) (Homo sapiens, UniProt P35968).
T1 construct: made in house; host or cells: Sf9 cells (Spodoptera frugiperda), baculovirus
Briefly: In vitro receptor tyrosine kinase assay (VEGF receptor KDR), DELFIA. The class given is biochemical. The note with it: recombinant GST-VEGFR2 806-1356, ATP 0.6 uM; read-out: VEGFR IC50UM. An excerpt: In Vitro Receptor Tyrosine Kinase Assay (VEGF Receptor KDR)
This test measures the ability of compounds to inhibit the enzymatic activity of recombinant human VEGF receptor enzymatic activity.
A 1.6-kb cDNA corresponding to the catalytic domain of VEGFR2 (KDR) (Genbank accession number AF035121 amino acid 806 to 1356) is cloned into the Pst I site of the pDEST20 Gateway vector (Invitrogen) for the production of a GST-tagged version of that enzyme. This construct is used to generate recombinant baculovirus using the Bac-to-Bac™ system according to the manufacturer's instructions (Invitrogen).
The GST-VEGFR2806-1356 protein is expressed in Sf9 cells (Spodoptera frugiperda) upon infection with recombinant baculovirus construct. Briefly, Sf9 cells grown in suspension and maintained in serum-free medium (Sf900 II supplemented with gentamycin) at a cell density of about 2×10^6 cells/ml are infected with the above-mentioned viruses at a multiplicity of infection (MOI) of 0.1 during 72 hours at 27° C. with agitation at 120 rpm on a rotary shaker. Infected cells are harvested by centrifugation at 398 g for 15 min. Cell pellets are frozen at −80° C. until purification is performed.
All steps described in cell extraction and purification are performed at 4° C. Frozen Sf9 cell pellets infected with the GST-VEGFR2806-1356 recombinant baculovirus are thawed and gently resuspended in Buffer A (PBS pH 7.3 supplemented with 1 μg/ml pepstatin, 2 μg/ml Aprotinin and leupeptin, 50 μg/ml PMSF, 50 μg/ml TLCK and 10 μM E64 and 0.5 mM DTT) using 3 ml of buffer per gram of cells. Suspension is Dounce homogenized and 1% Triton X-100 is added to the homogenate after which it is centrifuged at 22500 g, 30 min., 4° C. The supernatant (cell extract) is used as starting material for purification of GST-VEGFR2806-1356.
The supernatant is loaded onto a GST-agarose column (Sigma) equilibrated with PBS pH 7.3. Following a four column volume (CV) wash with PBS pH 7.3+1% Triton X-100 and 4 CV wash with buffer B (50 mM Tris pH 8.0, 20% glycerol and 100 mM NaCl), bound proteins are step eluted with 5 CV of buffer B supplemented with 5 mM DTT and 15 mM glutathion. GST-VEGFR2806-1356 enriched fractions from this chromatography step are pooled based on U.V. trace i.e. fractions with high O.D.280. Final GST-VEGFR2806-1356 protein preparations concentrations are about 0.7 mg/ml with purity approximating 70%. Purified GST-VEGFR2806-1356 protein stocks are aliquoted and frozen at −80° C. prior to use in enzymatic assay.
Inhibition of VEGFR/KDR is measured in a DELFIA™ assay (Perkin Elmer). The substrate poly(Glu4,Tyr) is immobilized onto black high-binding polystyrene 96-well plates. The coated plates are washed and stored at 4° C. During the assay, the enzyme is pre-incubated with inhibitor and Mg-ATP on ice in polypropylene 96-well plates for 4 minutes, and then transferred to the coated plates. The subsequent kinase reaction takes place at 30° C. for 10-30 minutes. ATP concentrations in the assay are 0.6 uM for VEGFR/KDR (2× the Km). Enzyme concentration is 5 nM. After incubation, the kinase reactions are quenched with EDTA and the plates are washed. Phosphorylated product is detected by incubation with Europium-labeled anti-phosphotyrosine MoAb. After washing the plates, bound MoAb is detected by time-resolved fluorescence in a Gemini SpectraMax reader (Molecular Devices). Compounds are evaluated over a range of concentrations, and IC50 values (concentration of compounds giving 50% inhibition of enzymatic activity) are determined.

Assay [2] deals with laser-induced choroidal neovascularization (CNV). Briefly: In vivo choroidal neovascularization (CNV) model. On the set-up: species or system rat. The note with it: Brown-Norway rats, injection on Day 3, CNV area on Day 10. The source says: In Vivo Choroidal Neovascularization (CNV) Model This test measures the capacity of compounds to inhibit CNV progression. CNV is the main cause of severe vision loss in patients suffering from age-related macular degeneration (AMD). Male Brown-Norway rats (Charles River Japan Co., Ltd.) were used in these studies. Rats were anesthetized by intraperitoneal injection of pentobarbital, and the right pupil was dilated with 0.5% tropicamide and 0.5% phenylephrine hydrochloride. The right eye received 6 laser burns between retinal vessels using a slit lamp delivery system of Green laser Photocoagulator (Nidex Inc., Japan), and microscope slide glass with 10 mg/mL hyaluronic acid (SIGMA) used as a contact lens. The laser power was 200 mW for 0.1 second and spot diameter was 100 μm. At the time of laser burn, bubble production was observed; which is an indication of rupture of Bruch's membrane which is important for CNV generation. After animals were anesthetized, and the right pupil dilated (as mentioned above), the right eye of the animal received the compound or vehicle by an injection (3 μL/eye) at doses of 3 or 10 nmol/eye on Day 3. The compounds were dissolved or suspended in CBS, PBS, or other adequate vehicles before injection. On Day 10, the animals were anesthetized with ether, and high molecular weight fluorescein isothiocyanate (FITC)-dextran (SIGMA, 2×10^6 MW) was injected via a tail vein (20 mg/rat). About 30 min after FITC-dextran injection, animals were euthanized by ether or carbon dioxide, and the eyes were removed and fixed with 10% formaline neutral buffer solution. After over 1 hour of fixation, RPE-choroid-sclera flat mounts were obtained by removing cornea, lens and retina from the eyeballs. The flat mounts were mounted in 50% glycerol on a microscope slide, and the portion burned by laser was photographed using a fluorescence microscope (Nikon Corporation, excitation filter: 465-495 nm, absorption filter: 515-555 nm). The CNV area was obtained by measurement of hyper-fluorescence area observed on the photograph using Scion image. The average CNV area of 6 burns was used as an individual value of CNV area, and the average CNV area of compound treated group was compared with that of the vehicle-treated group.

Setting [3] is: Rattus norvegicus, 240 h, dose 3 nmol/eye, read-out: Inhibition of CNV Progression (%).

Like-named read-outs stand apart in the source and are kept apart here.

T1 sequence (P35968 806-1356): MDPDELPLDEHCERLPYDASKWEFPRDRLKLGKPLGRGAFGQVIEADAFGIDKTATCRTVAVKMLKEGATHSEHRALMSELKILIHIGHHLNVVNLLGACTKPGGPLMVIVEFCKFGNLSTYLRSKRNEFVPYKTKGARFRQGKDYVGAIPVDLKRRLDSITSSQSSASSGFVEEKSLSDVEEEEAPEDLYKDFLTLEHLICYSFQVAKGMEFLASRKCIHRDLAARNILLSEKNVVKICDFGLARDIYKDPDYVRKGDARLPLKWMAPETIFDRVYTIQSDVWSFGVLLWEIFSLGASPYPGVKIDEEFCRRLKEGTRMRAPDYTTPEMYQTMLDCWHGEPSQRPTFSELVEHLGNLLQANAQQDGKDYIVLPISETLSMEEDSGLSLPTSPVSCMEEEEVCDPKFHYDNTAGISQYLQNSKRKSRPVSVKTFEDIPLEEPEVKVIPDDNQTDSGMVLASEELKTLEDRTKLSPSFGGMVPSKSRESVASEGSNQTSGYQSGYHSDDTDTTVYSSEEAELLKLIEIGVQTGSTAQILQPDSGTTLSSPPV

Regarding `O=C(Nc1ccc(Oc2ccnc3cc(-c4ccc(CN5CCN(C(=O)COP(=O)(O)O)CC5)cn4)sc23)c(F)c1)NC1CC1` [Compound 6, 2-(4-((6-(7-(4-(3-Cyclopropylureido)-2-fluorophenoxy)thieno[3,2-b]pyridin-2-yl)pyridin-3-yl)methyl)piperazin-1-yl)-2-oxoethyl dihydrogen phosphate], the results for the IC50 (in assay [1] (Homo sapiens); at VEGFR2 (KDR)) were 0.4 nM and 9 nM, respectively. Moreover, in assay [2] (setting [3]), the inhibition in vivo at 3 nmol/eye was 20.9%.
Taken in the same sequence, the figures for `COCCOCCOCCOCCN1CCN(Cc2ccc(-c3cc4nccc(Oc5ccc(NC(=O)NC6CC6)cc5F)c4s3)nc2)CC1` [Compound 7, 1-(4-(2-(5-((4-(2,5,8,11-Tetraoxamidecan-13-yl)piperazin-1-yl)methyl)pyridin-2-yl)thieno[3,2-b]pyridin-7-yloxy)-3-fluorophenyl)-3-cyclopropylurea] were 0.2 nM, 6 nM and 18.1%.
Turning to `COCCOCCOCCOCCn1cc(-c2cc3nccc(Oc4ccc(NC(=O)NC5CC5)cc4F)c3s2)nn1` [Compound 30, 1-(4-(2-(1-(2,5,8,11-Tetraoxamidecan-13-yl)-1H-1,2,3-triazol-4-yl)thieno[3,2-b]pyridin-7-yloxy)-3-fluorophenyl)-3-cyclopropylurea], the IC50 in assay [1] (Homo sapiens) was 70 nM; at VEGFR2 (KDR), 18 nM. Further, the inhibition in vivo at 3 nmol/eye in assay [2] (setting [3]) was found to be 26.4%.
For `COCCOCCOCCOCCOc1ccc(NCc2ccc(-c3cc4nccc(Oc5ccc(NC(=O)NC6CC6)cc5F)c4s3)nc2)cc1` [Compound 39], the IC50 in assay [1] (Homo sapiens) is 6 nM; at VEGFR2 (KDR) it was 33 nM. Further, the inhibition in vivo at 3 nmol/eye in assay [2] (setting [3]) is 24.7%.
Regarding `COCCOCCOCCOCCC(=O)N1CCN(Cc2ccc(-c3cc4nccc(Oc5ccc(NC(=O)NC6CC6)cc5F)c4s3)nc2)CC1` [Compound 46, 1-(4-(2-(5-((4-2,5,8,11-Tetraoxatetradecanepiperazin-1-yl)methyl)pyridin-2-yl)thieno[3,2-b]pyridin-7-yloxy)-3-fluorophenyl)-3-cyclopropylurea], on VEGFR2 (KDR), the IC50 is 11 nM. The inhibition in vivo at 3 nmol/eye in assay [2] (setting [3]) was determined as 24.8%.
Taken in the same sequence, the figures for `COCCOCCOCCOCCOCCC(=O)N1CCN(Cc2ccc(-c3cc4nccc(Oc5ccc(NC(=O)NC6CC6)cc5F)c4s3)nc2)CC1` [Compound 49] were 8 nM and 20.9%.
As to `COCCOCCOCCOC(=O)N1CCN(Cc2ccc(-c3cc4nccc(Oc5ccc(NC(=O)NC6CC6)cc5F)c4s3)nc2)CC1` [Compound 50, 2-(2-(2-Methoxyethoxy)ethoxy)ethyl 4-((6-(7-(4-(3-cyclopropylureido)-2-fluorophenoxy)thieno[3,2-b]pyridin-2-yl)pyridin-3-yl)methyl)piperazine-1-carboxylate], the values for the IC50 (in assay [1] (Homo sapiens); on VEGFR2 (KDR)) were 0.8 nM and 8 nM, respectively. Besides, in assay [2] (Rattus norvegicus, 240 h, dose 10 nmol/eye, read-out: Inhibition of CNV Progression (%)), the inhibition in vivo at 10 nmol/eye came out at 80.6%.
Turning to `COCCOCCOCCOCCOC1CN(Cc2ccc(-c3cc4nccc(Oc5ccc(NC(=O)NC6CC6)cc5F)c4s3)nc2)C1` [Compound 60, 1-(4-(2-(5-((3-(2,5,8,11-tetraoxamidecan-13-yloxy)azetidin-1-yl)methyl)pyridin-2-yl)thieno[3,2-b]pyridin-7-yloxy)-3-fluorophenyl)-3-cyclopropylurea], the IC50 in assay [1] came out at 1.5 nM; at VEGFR2 (KDR), 10 nM.
Take `COCCOCCOCCOCCN(C(C)=O)C1CCN(Cc2ccc(-c3cc4nccc(Oc5ccc(NC(=O)NC6CC6)cc5F)c4s3)nc2)CC1` [Compound 65, N-(1-((6-(7-(4-(3-Cyclopropylureido)-2-fluorophenoxy)thieno[3,2-b]pyridin-2-yl)pyridin-3-yl)methyl)piperidin-4-yl)-N-(2,5,8,11-tetraoxamidecan-13-yl)acetamide]: the IC50 is 2 nM in assay [1] and 7 nM on VEGFR2 (KDR). Also, the “Inhibition of CNV Progression (%)” value in assay [2] (dose 3 nmol/eye) is reported as 32.1%.
In the case of `COCCOCCOCCOCCN1CCC(N(Cc2ccc(-c3cc4nccc(Oc5ccc(NC(=O)NC6CC6)cc5F)c4s3)nc2)C(C)=O)CC1` [Compound 69, N-(1-(2,5,8,11-Tetraoxamidecan-13-yl)piperidin-4-yl)-N-((6-(7-(4-(3-cyclopropylureido)-2-fluorophenoxy)thieno[3,2-b]pyridin-2-yl)pyridin-3-yl)methyl)acetamide], the IC50 in assay [1] is 25 nM; on VEGFR2 (KDR), 12 nM.

(Values after US20130096088A1, “Inhibitors of Protein Tyrosine Kinase Activity” (METHYLGENE INC., priority 2011, published 2013).)
